# According to paper PMC10847306, “The antibacterial activity and mechanism of a novel peptide MR-22 against multidrug-resistant Escherichia coli” (Frontiers in Cellular and Infection Microbiology, 2024):
# Read-outs that look alike come from different tables or passages of the source.
# Legend:
# [1] = tested on: E. coli E19; assay type: cell-based, Escherichia coli; details: 1 μg/ml trypsin, 37°C, mean ± SD
# Procedure: (§1) MR-22 was mixed with a solution containing 1 μg/ml of trypsin and incubated at 37°C for 2 to 12h. Then, trypsin inactivation was carried out at 60°C for 30 min. The antimicrobial activity of the samples was tested to assess the activity of MR-22 and its analogs after the treatment by trypsin. The untreated MR-22 served as the control group for comparative analysis.
# [2] = tested on: E. coli ATCC 25922; assay type: cell-based, Escherichia coli; details: 1 μg/ml trypsin, 37°C, mean ± SD
# Procedure: as §1
# [3] = tested on: E. coli E19; assay type: cell-based, Escherichia coli
# Procedure: (§2) In order to study the activity of MR-22 in high-salt concentration, mice serum, different temperatures or trypsin, MIC once again conducted tests as described above.
# E. coli ATCC 25922 and E19 were incubated in different concentrations MR-22 in MHB with 150 mM NaCl, 2 mM CaCl2, 10% mice serum and 10% FBS in 96-well plates and cultured at 37°C for 16 h. The resulting solutions were subjected to MIC testing to evaluate any alterations in the antimicrobial activity of MR-22.
# (§3) To assess the thermal stability of MR-22, it was subjected to various temperatures (40°C, 60°C, 80°C, and 100°C) for 30 min. Then, reducing to room temperature, and the MIC was subsequently determined.
# as §1
# [4] = tested on: E. coli ATCC 25922; test: microbe, parasite or virus in culture; details: ATCC 25922, 18 h
# Procedure: The MIC were determined by a micro dilution method in Mueller-Hinton broth (MHB) ([Cuenca-Estrella et al., 2010]). The final concentration of bacterial suspension in MHB were 1.0×10^6 CFU/mL. The final concentration of MR-22 ranged 1 ~ 256 μg/mL in 96 wells plate broth at 37°C for 16~18 h. Imipenem was employed as positive control, bacterial grown without treatment as negative control and MHB as blank control. MIC determination was performed by reading the OD600 nm. Take 100 μL samples in holes that have never seen bacterial growth and place them on the LB agar board. The concentration of MR-22 with no bacterial growth was defined as the MBC.
# [5] = tested on: E. coli E19; test: Mice peritonitis model; assay type: in vivo; details: C57BL/6J mice
# Procedure: This study utilized female C57BL/6J mice aged 6-8 weeks, weight range of 18-20 g, which were obtained from SPF Biotechnology Co., Ltd (Beijing, China). The animals were housed under maintained on a standard 12 h light/12 h dark cycle. All animal experiments were conducted in accordance with the Ethical Principles in Animal Research adopted by Guizhou Medical University and were approved by the Institutional Animal Care and Use Committee.
# To evaluate the in vivo efficacy of MR-22, we used a mice peritonitis model. A total of 60 mice were divided into three groups: treatment group (10 mg/kg MR-22, intraperitoneal injection), positive control group (10 mg/kg imipenem, intraperitoneal injection), and normal control group (PBS, intraperitoneal injection). Peritonitis was induced by intraperitoneal injection of 1.0 × 10^8 CFU bacterial inoculum in 0.2 mL of E. coli E19. Survival rates were recorded every 12 h for 7 days.
# To study the protective effects of MR-22, 10 mice in each group were sacrificed, and peritoneal lavage fluid, blood, liver, and kidney were collected 36 h after administration. The number of colonies in peritoneal lavage fluid and blood were determined by culturing on LB agar, while the tissues were fixed in 4% paraformaldehyde and subjected to hematoxylin and eosin staining to study the morphology.
# [6] = tested on: E. coli ATCC 25922 and E19; test: Reactive oxygen species measurement (DCFH-DA); assay type: cell-based, Escherichia coli; details: DCFH-DA 10 μM, MR-22 1, 2, 4 × MIC, 1 h, 37°C; ex 488/em 525 nm
# Procedure: The fluorescence probe 2’,7’-dichlorodihydrofluorescein diacetate (DCFH-DA) was used to measure the intracellular generation of ROS. The bacterial suspension (1.0 × 10^6 CFU/mL) were mixed with DCFH-DA (the final concentration of 10 μM) and incubated for at 37°C 30 min in the dark. After incubation, the suspensions were treated with MR-22 (1, 2, 4 × MIC) at the indicated concentrations for 1 h at 37°C. The fluorescence intensity was evaluated using a multi-function fluorescent enzyme marker with an excitation wavelength of 488 nm and an emission wavelength of 525 nm. N-acetylcysteine (NAC) at a concentration of 24 mM was employed as a control agent for the purpose of quenching the production of reactive oxygen species.
# [7] = tested on: E. coli ATCC 25922; assay type: cell-based, Escherichia coli
# Procedure: as §2
# […] The resulting solutions were subjected to MIC testing to evaluate any alterations in the antimicrobial activity of MR-22.
# as §3, §1
# [8] = tested on: E. coli E19; test: Time-kill assay; assay type: cell-based, Escherichia coli; details: 1 × MIC ('1 × MIC and 2 × MIC, respectively' for E19 and ATCC 25922), 1.0×10^6 CFU/mL, 37°C, colony counts
# Procedure: (§4) The time-kill kinetics of MR-22 on E. coli were determined following the protocol described by ([Lu et al., 2022]). The bacterial suspensions (1.0×10^6 CFU/mL) were mixed with different concentrations of MR-22, then cultured at 37°C. The final concentrations of MR-22 ranged 1, 2, 4 ×MIC. At 0, 1, 2, 4, 6, 12, and 24 h, 10 μL aliquot samples were diluted in 90 μL PBS and 5 μL aliquot of the dilutions was spread onto LB agar plates. After incubation at 37°C for 24 h, the colony counts were determined and the time-killing curve was plotted.
# [9] = tested on: E. coli ATCC 25922; test: Time-kill assay; assay type: cell-based, Escherichia coli; details: 2 × MIC ('1 × MIC and 2 × MIC, respectively' for E19 and ATCC 25922), 1.0×10^6 CFU/mL, 37°C, colony counts
# Procedure: as §4
substance,measurement,setting,value
H-MAKRRKKAKKKAKKAKKRRRRR-NH2 [MR-22],Rate of inhibition after incubation with trypsin,[1]; 4 h,17.74 ± 2.88%
same,Rate of inhibition after incubation with trypsin,[1]; 8 h,5.41 ± 1.20%
same,Rate of inhibition after incubation with trypsin,[1]; 10 h,4.49 ± 1.54%
same,Rate of inhibition after incubation with trypsin,[1]; 12 h,0.64 ± 0.46%
same,Rate of inhibition after incubation with trypsin,[2]; 4 h,22.32 ± 1.71%
same,Rate of inhibition after incubation with trypsin,[2]; 8 h,3.40 ± 0.26%
same,Rate of inhibition after incubation with trypsin,[2]; 10 h,1.85 ± 0.18%
same,Rate of inhibition after incubation with trypsin,[2]; 12 h,1.33 ± 0.22%
same,"MIC, 150 μM Na^+","[3]; E19, 16 h",256 µg/mL
same,"MIC, 10% FBS","[3]; E19, 16 h",32 µg/mL
same,"MIC, 10% Serum","[3]; E19, 16 h",128 µg/mL
same,"MIC, 40°C 30 min","[3]; E19, 16 h",32 µg/mL
same,"MIC, 60°C 30 min","[3]; E19, 16 h",32 µg/mL
same,"MIC, 80°C 30 min","[3]; E19, 16 h",32 µg/mL
same,"MIC, 100°C 30 min","[3]; E19, 16 h",32 µg/mL
same,"MIC, Control","[3]; E19, 16 h",32 µg/mL
same,"MIC, 1 μg/mL Trypsin","[3]; E. coli E19, MR-22 incubated with 1 μg/ml trypsin at 37°C (2 to 12 h), trypsin inactivated 60°C 30 min",>256 µg/mL
same,MBC,[4],16 µg/mL
same,MIC,[4],16 µg/mL
same,bacterial content in the peritoneal lavage fluid,"[5]; E19 peritonitis, 10 mg/kg 1 h after infection, after 36 h, ten mice per group, control group 8.73 ± 0.38",7.23 ± 0.36 Log10CFU/mL
same,72-h survival rate,"[5]; peritonitis by 1.0 × 10^8 CFU E. coli E19 i.p., 10 mg/kg intraperitoneal injection, infected group 0%",40%
same,ROS accumulation in bacteria,[6],increased significantly
same,"MIC, 150 μM Na^+","[7]; ATCC 25922, 16 h",256 µg/mL
same,"MIC, 10% FBS","[7]; ATCC 25922, 16 h",16 µg/mL
same,"MIC, 10% Serum","[7]; ATCC 25922, 16 h",64 µg/mL
same,"MIC, 40°C 30 min","[7]; ATCC 25922, 16 h",16 µg/mL
same,"MIC, 60°C 30 min","[7]; ATCC 25922, 16 h",16 µg/mL
same,"MIC, 80°C 30 min","[7]; ATCC 25922, 16 h",16 µg/mL
same,"MIC, 100°C 30 min","[7]; ATCC 25922, 16 h",16 µg/mL
same,"MIC, Control","[7]; ATCC 25922, 16 h",16 µg/mL
same,"MIC, 1 μg/mL Trypsin","[7]; E. coli ATCC 25922, MR-22 incubated with 1 μg/ml trypsin at 37°C (2 to 12 h), trypsin inactivated 60°C 30 min",>256 µg/mL
same,time to eliminate the bacteria (time-kill),[8],≤ 2 h
same,time to eliminate the bacteria (time-kill),[9],≤ 2 h
